Consider four compounds from patent US5128354A, “Agent for treating ischemic brain damage” (priority 1987, dated 1992).

Read-outs that look alike come from different tables or passages of the source.

For series [1] the following is noted: Arch. int. Pharmacodyn., 286, 282-298 (1987); cited from earlier work.
Series [2] deals with cerebral hypoxia. Nature of the series: Prolonging effect on survival time of mice in normobaric hypoxia. Type of series: in vivo, mice (STD-ddY strain, male). Particulars: Mus musculus, po, read-out: Normobaric hypoxia PD30 (dose which prolonged the survival time by 30%). As for the experimental part: (§1) Protective effect on cerebral hypoxia
(2) Prolonging effect on survival time of mice in normobaric hypoxia
This test was carried out according to the method described in Naunyn-Schmiedeberg's Arch. Pharmacol., 334, 282-289 (1986).
Male mice of STD-ddY strain weighing […] were used in groups of 5 animals. A prescribed amount of test compounds, suspended in a 0.5% aqueous tragacanth solution, was orally administered to mice at a volume of 0.1 ml per 10 g of body weight. Two hours or one hour (for carbamazepine) after the administration of test compounds, each animal was taken in a 2.5-liter plastic chamber, and a mixed gas of 4% oxygen and 96% nitrogen was passed through the chamber at a rate of 4 liters/minute. There was measured the time to the death (respiratory cessation) of the animal. To control group was orally administered only the same volume of a 0.5% aqueous tragacanth solution. The PD30 was calculated from the dose-activity relationship. The PD30 means the dose of a test compound which prolonged the survival time by 30% in comparison with that of control group.

Series [3] relates to delayed neuronal death in the gerbil hippocampal CA1 subfield. Put plainly: Protective effect on delayed neuronal death in the gerbil hippocampus following a transient ischemia. Type of series: in vivo, Mongolian gerbils (male). Particulars: p.o.; for CA1 neuronal density: ± S.E., 5 min occlusion, 4 days after. Here is the method:
Protective effect on delayed neuronal death in the gerbil hippocampus following a transient ischemia
This test was carried out according to the method described in Brain Res., 239, 57-69 (1982).
Male Mongolian gerbils weighing 65-85 g were used in groups of 5 or 6 animals. A prescribed amount of test compounds, suspended in a 0.5% aqueous tragacanth solution, was orally administered to animals at a volume of 0.2 ml per 100 g of body weight. To control group was orally administered only the same volume of 0.5% aqueous tragacanth solution. One hour after the administration of test compounds, the necks of the gerbils were opened by a mid line incision under ether anesthesia, and then the bilateral common carotid arteries were exposed and occluded with Zen clips to block the blood flow. After 5 minutes, the clips were released and the blood flow was restored. Animals for the sham-operated group were operated in the same manner as above except that the occlusion of the carotid arteries. After 4 days, the animals were anesthetized with pentobarbital and fixed by transcardiac perfusion with a fixative solution containing 2.5% glutaraldehyde and 2% formaldehyde in 0.1M phosphate buffer (pH 7.4) at a pressure of 120 cm H2 O, and then the brains were removed. After the isolated brains were kept in the same fixative solution as above overnight, they were cut into coronal sections which contained the hippocampal area 0.5-1.0 mm posterior to the most rostral tip of the hippocampus or 1.4-1.9 mm posterior to bregma. Dissected brains were dehydrated and then embedded in paraffin. From the paraffin block, 4 μm-thin sections were prepared and subjected to hematoxylin-eosin staining.
The number of morphologically intact neurons remaining in the hippocampal CA1 subfield of the above tissue specimen was measured using a computer-image digitizer (Image Research Inc., Canada, MCID model) at a magnification of 200×, and neuronal density per mm^2 area of the right and left hippocampus, namely, the CA1 neuronal density, was calculated.
The value of the CA1 neuronal density in the table was calculated based on the average of the numbers of the remaining neurons in the right and left hippocampus of each animal. Student's t-test was used for the statistical analysis.

For series [4], the system named is cerebral hypoxia. Nature of the series: Prolonging effect on the persistent time of gasping movements in complete ischemia. The class given is in vivo, mice (STD-ddY strain, male). As to conditions: for ED (15% prolongation): Mus musculus, po, read-out: Complete ischemia PD15 (dose which prolonged the persistent time of gasping movements by 15%). As for the experimental part:
as §1
(1) Prolonging effect on the persistent time of gasping movements in complete ischemia
This test was carried out according to the method described in Arch. int. Pharmacodyn., 233, 136-144 (1978).
Male mice of STD-ddY strain weighing 22-26 g were used in groups of 5 animals. A prescribed amount of test compounds, suspended in a 0.5% aqueous tragacanth solution, was orally administered to mice at a volume of 0.1 ml per 10 g of body weight. Two hours or one hour (for carbamazepine) after the administration of test compounds, the necks of the animals were cut with scissors for decapitation. The persistent time of gasping movements in the isolated heads was measured. To control group was orally administered only the same volume of a 0.5% aqueous tragacanth solution. The PD15 was calculated from the dose-activity relationship. The PD15 means the dose of a test compound which prolonged the persistent time of gasping movements by 15% in comparison with that of control group.

Series [5] is described as follows: Hypnonarcotic activity (loss of righting reflex). Further details: species or system mice (STD-ddY strain, male). As to conditions: mouse, in vivo, po. Here is the method: (§2) This test was carried out according to the method described in Japan. J. Pharmacol., 13, 259-273 (1963).
(§3) Male mice of STD-ddY strain weighing 22-26 g were used in groups of 5-10 animals. A prescribed amount of test compounds, suspended in a 0.5% aqueous tragacanth solution, was orally administered to mice at a volume of 0.1 ml per 10 g of body weight. […] The HD50 was calculated by Probit method. The HD50 means the dose of a test compound which produced hypnonarcotic effect in 50% of animals.

The nature of a further series: in vivo. Type of series: in vivo. As to conditions: mouse, in vivo, po; mice, p.o.; mortality observed for 7 days; Probit method; read-out: Acute toxicity LD50. Here is the method: (§4) Male mice of STD-ddY strain weighing 22-26 g were used in groups of 5-10 animals. A prescribed amount of test compounds, suspended in a 0.5% aqueous tragacanth solution, was orally administered to mice at a volume of 0.2 ml per 10 g of body weight.

The test system of series [6] is mice. Nature of the series: Hypnonarcotic activity (loss of righting reflex). As to conditions: mouse, in vivo, po, 200 mg/kg. Also on record: species or system mice (STD-ddY strain, male). As for the experimental part: as §2, §3
Series [7] has as its system mice. Nature of the series: in vivo. The class given is in vivo. As to conditions: p.o. Here is the method:
as §4

The mark [8] stands for this setting: mice, p.o., 4% oxygen/96% nitrogen, 2 h (1 h for carbamazepine) after administration.
Setting [9] is: mice, p.o., 2 h (1 h for carbamazepine) after administration.

For the compound `NC(=O)N1c2ccccc2C=Cc2ccccc21` [Carbamazepine], the “effect against cerebral hypoxia (in words)” value in series [1] was “effective against cerebral hypoxia”. Moreover, in the series on cerebral hypoxia [2] (setting [8]), the ED (30% prolongation) came out at 19.6 mg/kg. The CA1 neuronal density in series [3] (10 mg/kg) was 482 ± 272 number of cells/mm^2; in series [3] (30 mg/kg), 932 ± 353 number of cells/mm^2; in series [3] (100 mg/kg) it was 1235 ± 330 number of cells/mm^2. Besides, in series [3] (100 mg/kg), the “protective effect on delayed neuronal death (in words)” value (from here on “protective effect … (in words)”) is on record as “relatively weak protective effect”. Moreover, the ED (15% prolongation) with cerebral hypoxia [4] (setting [9]) turned out to be 5.5 mg/kg. In addition, the TD50 in series [5] (mice, p.o., righting reflex lost for 60 minutes or more, Probit method, read-out: Hypnonarcotic activity HD50 (dose which produced hypnonarcotic effect in 50% of animals)) is 345 mg/kg.

Consider `CCC1(c2ccccc2)C(=O)NC(=O)NC1=O` [Phenobarbital], for which, in “in vivo”, the LD50 (usually the dose at which mortality reaches 50%) at 168 h came to 201 mg/kg. Moreover, in the series with cerebral hypoxia [2], the ED (30% prolongation) is 26.8 mg/kg. In the series with cerebral hypoxia [4], the ED (15% prolongation) is 15 mg/kg.

For `O=C1NC(=O)C(c2ccccc2)(c2ccccc2)N1` [Phenytoin], the “effect against cerebral hypoxia (in words)” value in series [1] was “effective against cerebral hypoxia”. Moreover, the ED (30% prolongation) in the series with cerebral hypoxia [2] (setting [8]) is 22.7 mg/kg. In addition, the CA1 neuronal density in series [3] (30 mg/kg) is 228 ± 87 number of cells/mm^2. In series [3] (100 mg/kg), the “protective effect … (in words)” value is given as “relatively weak protective effect” and the CA1 neuronal density was 1464 ± 503 number of cells/mm^2. Also, the ED (15% prolongation) in the series on cerebral hypoxia [4] (setting [9]) amounted to 5.5 mg/kg. Further, the “Clonic convulsion and death” value with mice [6] is “convulsion in all mice and of death in some mice”. Besides, in series [5], the TD50 is more than 200 mg/kg.

Regarding `NS(=O)(=O)Cc1noc2ccccc12` [The active compound of the invention, 3-Sulfamoylmethyl-1,2-benzisoxazole], the “toxicity (in words)” value with mice [7] is on record as “weak”. Also, in “in vivo”, the LD50 at 168 h was 1890 mg/kg. Further, the ED (30% prolongation) in the series on cerebral hypoxia [2] amounted to 29.4 mg/kg. For the same compound, the CA1 neuronal density in series [3] (10 mg/kg) is listed as 519 ± 28 number of cells/mm^2; in series [3] (30 mg/kg), 2713 ± 228 number of cells/mm^2; in series [3] (100 mg/kg) it was 3326 ± 49 number of cells/mm^2. Moreover, the “protective effect … (in words)” value in series [3] (30 mg/kg) was “extremely strong protective effect”; in series [3] (100 mg/kg), “almost completely prevented the delayed neuronal death”. For the same compound, the ED (15% prolongation) in the series with cerebral hypoxia [4] is 6 mg/kg. The “protective effects on cerebral hypoxia compared with reference drugs (Table 1)” value with cerebral hypoxia [4] (mice, p.o., complete ischemia and normobaric hypoxia (also A2)) is “comparable to those of phenobarbital, phenytoin and carbamazepine”. In series [5], this compound showed a TD50 of 934 mg/kg.
